Assay results: US10314819B2, “Solid state forms of Eluxadoline” (TEVA PHARMACEUTICALS INTERNATIONAL GMBH, priority 2015, dated 2019)
Like-named read-outs stand apart in the source and are kept apart here.

What was measured:
Format in all cases: physicochemical
[1] = Thermal stability, heating in a vacuum dryer at 50° C. and 100° C. (XRPD, HPLC); conditions: for XRPD / HPLC/Area % (start: 99.88): vacuum dryer
Experimental: Samples of Eluxadoline alpha (5 g) were subjected to heating in a vacuum dryer at 50° C. and 100° C., for different periods of time.

[2] = Specific surface area (SSA), BET nitrogen
Experimental: Specific Surface Area (SSA) measurements (Bet Nitrogen) were determined using a Micromeritics ASAP 2000, specific surface area analyzer. Samples were subjected to the BET nitrogen adsorption analysis to determine the specific surface of the samples.
Sample tube: 10 cc bulb with ½″ stem
Sample mass: Approximately ½ full cell
Sample preparation: Degassing with nitrogen
Outgassing conditions: 40° C. (30 min)
Isothermal collection point: 20 adsorption points, in the range 0-1 P/P0
Isothermal data analysis range: 5 point BET in the range 0.05-0.20 P/P0
Equilibration interval: 5 s
Equilibration time out: 600 s

[3] = % weight loss / water content (TGA, KF) after storage at various relative humidity; conditions: for % weight loss/water cont. - after 1 M, TGA: TGA up to 190° C.
Experimental: (§1) The obtained amorphous form was stored at various conditions, and the PXRD was analyzed after 3 and 7 days:
(§2) The obtained form alpha was stored at various conditions, and the PXRD was analyzed after 3 and 8 days:
(§3) The obtained amorphous form was stored at various conditions of relative humidity, and the PXRD was obtained after 1M (Table 4):
(§4) The obtained amorphous form was stored at various conditions, and the PXRD was obtained after 2M (Table 5):
(§5) XRPD pattern is shown in FIG. 16; SEM image is shown in FIG. 17; DSC thermogram is shown in FIG. 21 and TGA thermogram is shown in FIG. 22. The obtained form alpha was stored at various conditions, and the PXRD was obtained after 8, 14, and 21 days (Table 6): […]

[4] = Polymorph stability on storage at various relative humidity (PXRD)
Experimental: Sample after being powdered in a mortar and pestle is applied directly on a silicon plate holder. The X-ray powder diffraction pattern was measured with Philips X'Pert PRO X-ray powder diffractometer, equipped with Cu irradiation source=1.54184 Å(Ångström), X'Celerator (2.022° 2θ) detector. Scanning parameters: angle range: 3-40 deg., step size 0.0167, time per step 37 s, continuous scan.
as §1
The obtained pure amorphous form was stored at various conditions, and the PXRD was analyzed after 3 and 7 days:
as §2, §3, §4, §5

[5] = Dissolution in 50 mM phosphate buffer pH = 7.4 at 37° C.; conditions: 50 mM phosphate buffer pH = 7.4, 37° C.
Experimental: Samples were prepared and analysed in duplicate. About 20 mg of each sample were weighed into 500 ml Erlenmeyer flask, 200 ml of 50 mM phosphate buffer pH=7.4, previously heated to 37° C. were added and flasks were shaken at 110 rpm for 60 minutes at 37±0.2° C. in an incubator shaker. 3 ml aliquots were taken at 5, 10, 20, 30, 45 and 60 min, filtered through 0.45 μm Chromafil Xtra RC 45/25 syringe filter and analysed by UV/VIS spectrometer (absorbance at 203 nm).
The measurement was performed using the following instruments: • pH/Ion meter PHM 240, MeterLab, Radiometer Analytical • Incubator shaker Innova 4080, New Brunswick Scientific, 19 mm diameter circular orbit • UV/VIS spectrometer Varian Cary 50 Bio, 1 mm quartz cell Results of Eluxadoline samples dissolution in 50 mM phosphate buffer pH=7.4 are summarized in Table 8 below: […]

[6] = Flow function, FT4 Powder Rheometer, Freeman shear test 9 kPa; conditions: PSD/μm 10/60/164
Experimental: The Flow function was determined by using FT4 Powder Rheometer, Freeman FT4 instrument, and standard Freeman shear test—9 kPa (using small cell 1 ml), according to method below:
1. Compact to 9 kPa for 60 s
2. Pre shear hold 7 kPa for 16 s
3. Shear test at 7 kPa (Shear at 18°/min for 10°, auto detected peak torque yes)
4. Pre shear hold 6 kPa for 16 s
5. Shear test at 6 kPa (Shear at 18°/min for 10°, auto detected peak torque yes)
6. Pre shear hold 5 kPa for 16 s
7. Shear test at 5 kPa (Shear at 18°/min for 10°, auto detected peak torque yes)
8. Pre shear hold 4 kPa for 16 s
9. Shear test at 4 kPa (Shear at 18°/min for 10°, auto detected peak torque yes)
10. Pre shear hold 3 kPa for 16 s
11. Shear test at 3 kPa (Shear at 18°/min for 10°, auto detected peak torque yes)

COc1ccc(CN(C(=O)[C@@H](N)Cc2c(C)cc(C(N)=O)cc2C)[C@@H](C)c2nc(-c3ccccc3)c[nH]2)cc1C(=O)O [Eluxadoline alpha form, Eluxadoline]
XRPD ([1]; 50 ° C., 1 h): alpha
XRPD ([1]; 50 ° C., 2 h): alpha
XRPD ([1]; 50 ° C., 3 h): alpha
HPLC/Area % (start: 99.88) ([1]; 50 ° C., 3 h): 99.91 Area %
XRPD ([1]; 100 ° C., 1 h): alpha
XRPD ([1]; 100 ° C., 2 h): alpha
XRPD ([1]; 100 ° C., 3 h): alpha
HPLC/Area % (start: 99.88) ([1]; 100 ° C., 3 h): 99.91 Area %
stability by XRPD and HPLC on heating ([1]; vacuum dryer at 50° C. and 100° C., different periods of time): stable
SSA ([2]; listed as Eluxadoline form alpha): about 9.63 m^2/g

COc1ccc(CN(C(=O)[C@@H](N)Cc2c(C)cc(C(N)=O)cc2C)[C@@H](C)c2nc(-c3ccccc3)c[nH]2)cc1C(=O)O [Example 10, Eluxadoline]
% weight loss/water cont. - after 7 days, TGA ([3]; 0% RH, 7 days): TGA-7.96%
% weight loss/water cont. - after 7 days, KF ([3]; 20% RH, 7 days): 9.01%
% weight loss/water cont. - after 7 days, TGA ([3]; 20% RH, 7 days): 7.96%
% weight loss/water cont. - after 7 days, KF ([3]; 40% RH, 7 days): 9.11%
% weight loss/water cont. - after 7 days, TGA ([3]; 40% RH, 7 days): 8.15%
% weight loss/water cont. - after 7 days, KF ([3]; 60% RH, 7 days): 9.91%
% weight loss/water cont. - after 7 days, TGA ([3]; 60% RH, 7 days): 8.88%
% weight loss/water cont. - after 7 days, KF ([3]; 80% RH, 7 days): 13.30%
% weight loss/water cont. - after 7 days, TGA ([3]; 80% RH, 7 days): 11.88%
% weight loss/water cont. - after 7 days, KF ([3]; 100% RH, 7 days): 15.69%
% weight loss/water cont. - after 7 days, TGA ([3]; 100% RH, 7 days): 15.03%
% weight loss/water cont. - after 7 days, TGA ([3]; As is): TGA-5.97%
PXRD results - after 7 days ([4]; 0% RH, 7 days): amorphous
PXRD results - after 7 days ([4]; 20% RH, 7 days): amorphous
PXRD results - after 7 days ([4]; 40% RH, 7 days): amorphous
PXRD results - after 7 days ([4]; 60% RH, 7 days): amorphous
PXRD results - after 7 days ([4]; 80% RH, 7 days): amorphous
PXRD results - after 7 days ([4]; 100% RH, 7 days): amorphous
PXRD results - after 7 days ([4]; As is): amorphous

COc1ccc(CN(C(=O)[C@@H](N)Cc2c(C)cc(C(N)=O)cc2C)[C@@H](C)c2nc(-c3ccccc3)c[nH]2)cc1C(=O)O [Example 11, Eluxadoline]
PXRD results after 7 days ([4]; 0% RH, 7 days): amorphous
PXRD results after 7 days ([4]; 20% RH, 7 days): amorphous
PXRD results after 7 days ([4]; 40% RH, 7 days): amorphous
PXRD results after 7 days ([4]; 60% RH, 7 days): amorphous
PXRD results after 7 days ([4]; 80% RH, 7 days): amorphous
PXRD results after 7 days ([4]; 100% RH, 7 days): amorphous

COc1ccc(CN(C(=O)[C@@H](N)Cc2c(C)cc(C(N)=O)cc2C)[C@@H](C)c2nc(-c3ccccc3)c[nH]2)cc1C(=O)O [Example 12, 5-(((S)-2-amino-3-(4-carbamoyl-2,6-dimethylphenyl)-N—((S)-1-(4-phenyl-1H-imidazol-2-yl)ethyl)propanamido)methyl)-2-methoxybenzoic acid]
% weight loss after 8 days by TGA ([3]; as is, TGA up to 121° C.): TGA* = 1.29%
PXRD results after 8 days ([4]; 0% RH): alpha
PXRD results after 8 days ([4]; 20% RH): alpha
PXRD results after 8 days ([4]; 40% RH): alpha
PXRD results after 8 days ([4]; 60% RH): alpha
PXRD results after 8 days ([4]; 80% RH): alpha

COc1ccc(CN(C(=O)[C@@H](N)Cc2c(C)cc(C(N)=O)cc2C)[C@@H](C)c2nc(-c3ccccc3)c[nH]2)cc1C(=O)O [Example 20]
% dissolved ([5]; 5 min): 63.21%
% dissolved ([5]; 10 min): 81.56%
% dissolved ([5]; 20 min): 91.46%
% dissolved ([5]; 30 min): 93.81%
% dissolved ([5]; 45 min): 94.48%
% dissolved ([5]; 60 min): 94.50%
% weight loss/water cont. - after 1 M, TGA ([3]; 0% RH, 1 M): TGA-7.42%
% weight loss/water cont. - after 1 M, TGA ([3]; 20% RH, 1 M): TGA-8.42%
% weight loss/water cont. - after 1 M, TGA ([3]; 40% RH, 1 M): TGA-9.34%
% weight loss/water cont. - after 1 M, TGA ([3]; 60% RH, 1 M): TGA-10.36%
% weight loss/water cont. - after 1 M, TGA ([3]; 80% RH, 1 M): TGA-12.89%
% weight loss/water cont. - after 1 M, TGA ([3]; 100% RH, 1 M): TGA-15.23%
% weight loss/water cont. - after 1 M, TGA ([3]; As is): TGA-5.79%
PXRD results - after 1 M ([4]; 0% RH, 1 M): amorphous
PXRD results - after 1 M ([4]; 20% RH, 1 M): amorphous
PXRD results - after 1 M ([4]; 40% RH, 1 M): amorphous
PXRD results - after 1 M ([4]; 60% RH, 1 M): amorphous
PXRD results - after 1 M ([4]; 80% RH, 1 M): amorphous
PXRD results - after 1 M ([4]; 100% RH, 1 M): amorphous
PXRD results - after 1 M ([4]; As is): amorphous

COc1ccc(CN(C(=O)[C@@H](N)Cc2c(C)cc(C(N)=O)cc2C)[C@@H](C)c2nc(-c3ccccc3)c[nH]2)cc1C(=O)O [Example 21]
Classification of powder flowability after Jenike [6]: Free-flowing (10 < FF)
Flow Function, (FF) ([6]; shear test 9 kPa): 10.08
SSA [2]: 1.243 m^2/g
% weight loss/water cont. after 2 M KF ([3]; 0% RH, 2 M): 8.56%
% weight loss/water cont. after 2 M KF ([3]; 20% RH, 2 M): 9.17%
% weight loss/water cont. after 2 M KF ([3]; 40% RH, 2 M): 10.50%
% weight loss/water cont. after 2 M KF ([3]; 60% RH, 2 M): 11.93%
% weight loss/water cont. after 2 M KF ([3]; 80% RH, 2 M): 14.15%
% weight loss/water cont. after 2 M KF ([3]; 100% RH, 2 M): 14.54%
% weight loss/water cont. after 2 M KF ([3]; As is): 4.42%
PXRD results - after 2 M ([4]; 0% RH, 2 M): amorphous
PXRD results - after 2 M ([4]; 20% RH, 2 M): amorphous
PXRD results - after 2 M ([4]; 40% RH, 2 M): amorphous
PXRD results - after 2 M ([4]; 60% RH, 2 M): amorphous
PXRD results - after 2 M ([4]; 80% RH, 2 M): amorphous
PXRD results - after 2 M ([4]; 100% RH, 2 M): amorphous
PXRD results - after 2 M ([4]; As is): amorphous

COc1ccc(CN(C(=O)[C@@H](N)Cc2c(C)cc(C(N)=O)cc2C)[C@@H](C)c2nc(-c3ccccc3)c[nH]2)cc1C(=O)O [amorphous Eluxadoline, Eluxadoline]
changes of samples exposed to RH (stability of amorphous form) ([4]; RH 0-10% for a 7 day period): did not show any changes
